Experimental data as given in patent US10722495B2, “Cyanoindazole compounds and uses thereof” (Incyte Corporation, priority 2017, dated 2020).

Target: HPK1 (Homo sapiens (Human), UniProt Q92918)
Experiment: HPK1 Kinase Binding Assay
Details: active HPK1 (SignalChem M23-11G), tracer 222, LanthaScreen Eu-Anti GST antibody, one hour incubation at 25° C.
Method: Example A. HPK1 Kinase Binding Assay
A stock solution of 1 mM test compound was prepared in DMSO. The compound plate was prepared by 3-fold and 11-point serial dilutions. 0.1 μL of the compound in DMSO was transferred from the compound plate to the white 384 well polystyrene plates. The assay buffer contained 50 mM HEPES, pH 7.5, 0.01% Tween-20, 5 mM MgCl2, 0.01% BSA, and 5 mM DTT. 5 μl of 4 nM active HPK1 (SignalChem M23-11G) prepared in the buffer was added to the plate. The enzyme concentration given was based on the given stock concentration reported by the vender. 5 μl of 18 nM tracer 222 (ThermoFisher PV6121) and 4 nM LanthaScreen Eu-Anti GST antibody (ThermoFisher PV5595) were added. After one hour incubation at 25° C., the plates were read on a PHERAstar FS plate reader (BMG Labtech). Ki values were determined.

HPK1, sequence (Q92918 1-346): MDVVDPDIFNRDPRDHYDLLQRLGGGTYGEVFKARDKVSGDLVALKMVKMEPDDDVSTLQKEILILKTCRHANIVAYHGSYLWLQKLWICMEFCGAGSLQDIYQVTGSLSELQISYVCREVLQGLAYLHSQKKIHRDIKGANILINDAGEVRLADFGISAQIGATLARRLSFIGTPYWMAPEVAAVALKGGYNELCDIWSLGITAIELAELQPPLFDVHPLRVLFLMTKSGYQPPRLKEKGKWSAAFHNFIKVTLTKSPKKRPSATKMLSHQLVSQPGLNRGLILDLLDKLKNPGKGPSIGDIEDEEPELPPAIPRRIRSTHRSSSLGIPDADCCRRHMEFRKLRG

SMILES	Ki [nM]
CNCc1cc(C)c(-c2cc3c(-c4cnc(N5CCN(C)CC5)nc4)n[nH]c3cc2C#N)c(F)c1 [Example 27, 5-(2-Fluoro-6-methyl-4-((methylamino)methyl)phenyl)-3-(2-(4-methylpiperazin-1-yl)pyrimidin-5-yl)-1H-indazole-6-carbonitrile]	≤ 100
CNCc1cc(C)c(-c2cc3c(-c4cnn(C5CC5)c4)n[nH]c3cc2C#N)c(F)c1 [Example 2, 3-(1-Cyclopropyl-1H-pyrazol-4-yl)-5-(2-fluoro-6-methyl-4-((methylamino)methyl)phenyl)-1H-indazole-6-carbonitrile]	≤ 100
CNCc1cc(C)c(-c2cc3c(-c4ccc(C(C)(C)C#N)cc4)n[nH]c3cc2C#N)c(F)c1 [Example 19, 3-(4-(2-Cyanopropan-2-yl)phenyl)-5-(2-fluoro-6-methyl-4-((methylamino)methyl)phenyl)-1H-indazole-6-carbonitrile]	≤ 100
CNCc1cc(C)c(-c2cc3c(-c4ccc(S(C)(=O)=O)cc4Cl)n[nH]c3cc2C#N)c(F)c1 [Example 24, 3-(2-Chloro-4-(methylsulfonyl)phenyl)-5-(2-fluoro-6-methyl-4-((methylamino)methyl)phenyl)-1H-indazole-6-carbonitrile]	≤ 100
CNCc1cc(C)c(-c2cc3c(-c4ccnc(C)c4)n[nH]c3cc2C#N)c(F)c1 [Example 31, 5-(2-Fluoro-6-methyl-4-((methylamino)methyl)phenyl)-3-(2-methylpyridin-4-yl)-1H-indazole-6-carbonitrile]	≤ 100
CNCc1cc(C)c(-c2cc3c(-c4ccc(S(C)(=O)=O)c(F)c4)n[nH]c3cc2C#N)c(F)c1 [Example 23, 3-(3-Fluoro-4-(methylsulfonyl)phenyl)-5-(2-fluoro-6-methyl-4-((methylamino)methyl)phenyl)-1H-indazole-6-carbonitrile]	≤ 100
CNCc1cc(C)c(-c2cc3c(-c4ccc(C5CC5)cc4)n[nH]c3cc2C#N)c(F)c1 [Example 15, 3-(4-Cyclopropylphenyl)-5-(2-fluoro-6-methyl-4-((methylamino)methyl)phenyl)-1H-indazole-6-carbonitrile]	≤ 100
CNCc1cc(C)c(-c2cc3c(-c4ccc(CO)cc4)n[nH]c3cc2C#N)c(F)c1 [Example 7, 5-(2-Fluoro-6-methyl-4-((methylamino)methyl)phenyl)-3-(4-(hydroxymethyl)phenyl)-1H-indazole-6-carbonitrile]	≤ 100

Next, values leading:

Ki [nM]	SMILES
≤ 100	CNCc1cc(C)c(-c2cc3c(-c4ccc(N5CC[C@H](F)C5)nc4)n[nH]c3cc2C#N)c(F)c1 [Example 41, 5-(2-Fluoro-6-methyl-4-((methylamino)methyl)phenyl)-3-(6-((S)-3-fluoropyrrolidin-1-yl)pyridin-3-yl)-1H-indazole-6-carbonitrile]
≤ 100	CNCc1cc(C)c(-c2cc3c(-c4ccc(C(C)(C)O)nc4)n[nH]c3cc2C#N)c(F)c1 [Example 33, 5-(2-Fluoro-6-methyl-4-((methylamino)methyl)phenyl)-3-(6-(2-hydroxypropan-2-yl)pyridin-3-yl)-1H-indazole-6-carbonitrile]
≤ 100	COc1cccc(F)c1-c1cc2c(-c3cnn(C)c3)n[nH]c2cc1C#N [Example 50, 5-(2-Fluoro-6-methoxyphenyl)-3-(1-methyl-1H-pyrazol-4-yl)-1H-indazole-6-carbonitrile]
≤ 100	CNCc1cc(C)c(-c2cc3c(-c4cnc(C)o4)n[nH]c3cc2C#N)c(F)c1 [Example 40, 5-(2-Fluoro-6-methyl-4-((methylamino)methyl)phenyl)-3-(2-methyloxazol-5-yl)-1H-indazole-6-carbonitrile]
≤ 100	CNCc1cc(C)c(-c2cc3c(-c4ccc(N5CCC(O)CC5)nc4)n[nH]c3cc2C#N)c(F)c1 [Example 42, 5-(2-Fluoro-6-methyl-4-((methylamino)methyl)phenyl)-3-(6-(4-hydroxypiperidin-1-yl)pyridin-3-yl)-1H-indazole-6-carbonitrile]
